Tests used:
IMR90 ER:RAS cells = assay: Senolytic activity under IRE1 inhibition with KIRA6; type: cell-based, human; settings: with 600 nM KIRA6, 4OHT treated cells; FIGS. 15A-B
Protocol: (§1) High-throughput microscopy survival assay—To assess senolytic effect of drugs, cells were cultured for 7 days, culture media was changed to DM0.5 media and drugs in DMSO were added (<5% v/v final concentration), drugs were replenished after 3 days if assay length was longer than 72 h. Wells were fixed in 4% PFA for 1 hour at day 10 to 14, washed 3 times with PBS and then stained with 1 μg/mL DAPI (w/v, PBS) for 10 minutes. Wells were then washed 3 times with PBS. Optionally plates could be stored at 4° C. for up to 2 weeks and DAPI stained. Image acquisition of DAPI stained cells was performed on an automated InCell Analyser 2000 (GE Healthcare®) and high-content analysis on the InCell Investigator 2.7.3 software used to quantify number of DAPI positive cells per well. A top-hat method was used to segment cell-nuclei based on DAPI stained area and a minimum nuclear area threshold of 80 μm used to exclude debris. For cancer cell lines, nuclear area threshold was reduced to 40 μm. Survival was measured as cell counts relative to DMSO treated quiescent or senescent cells.
To investigate whether the activation of UPR caused by NMT inhibition in senescent cells was responsible for the senolytic potential of NMT inhibitors, cells were treated with KIRA6, a selective inhibitor of IRE1, a kinase necessary for the UPR. IMR90 ER:RAS cells undergoing senescence (after induction with 4OHT), were treated with 600 nM KIRA6 (an IRE1 inhibitor) on day 4 post-induction. On day 7 post-induction, cells were treated with Compound 1 or 2 and 600 nM KIRA6. […] Both NMT inhibitor and Kira6 were replenished 3 days after addition of NMT inhibitor (at day 10 post-induction). Data is shown as mean±SD, n represents independent biological experiments.

[1] = system: HCT116 colon cancer cells; assay: Senolytic survival assay, chemotherapy-induced senescence in cancer cells; type: cell-based, human; settings: for Survival, senescent versus control cells: second experiment: doxorubicin 100 nM, etoposide 2 μM or cisplatin 100 μM, or DMSO, replenished after 72 h, 48 h more, FIGS. 7A-C
Protocol: IMR90 cells were used to generate inducible ER:RAS (hereinafter iRAS) cells to model Oncogene induced senescence (OIS), through retroviral infection of pLNC-ER:RAS-neo into IMR90 cells followed by selection with Neomycin. IMR90 cells containing the pLNC-ER:RAS plasmid backbone pLXSN were infected in parallel to assess leakiness in the pLNC-ER:RAS system. Treatment with 100 nM 4OHT (Sigma, in DMSO) was used to induce IMR90 ER:RAS cells to undergo oncogene induced senescence (OIS). Therapy induced senescence (TIS) was induced in IMR90 cells by treatment with 33 μM (50 ug/ml) bleomycin sulphate (Generon, HY-17565) for 24 hours, 20 μM palbociclib (Selleckchem, S1116) for 7 days or 100 nM doxorubicin (Cayman chemical, 15007) for 7 days. Senescence was induced in SK-HEP-1 cells by treatment with 2 μM etoposide (Sigma-Aldrich, E1383) for 7 days (FIGS. 4A-C). HCT-116 senescence was induced by 250 nM treatment with doxorubicin (Cayman chemical, 15007) for 48 hours followed by 5 days culture in media without chemotherapy (FIG. 5), or by treatment with 100 nM doxorubicin, 2 μM etoposide or 100 μM cisplatin for 3 days followed by 4 days culture in media without chemotherapy (FIGS. 6A-7C). Senescence was induced in MCF7 by 200 nM treatment with doxorubicin for 7 days, 2 μM etoposide for 7 days or 10 μM cisplatin for 7 days (FIGS. 8A-9C).
as §1, with “A top-hat method was used to segment cell-nuclei based on DAPI stained area and a minimum nuclear area threshold of 80 μm used to exclude debris. For cancer cell lines, nuclear area threshold was reduced to 40 μm.” left out
In a first experiment, HCT116 colon cancer cells were treated with doxorubicin (to induce senescence), or DMSO (as a control). […] 7 days after adding the drugs with replenishment after 3 days, cells were fixed, imaged and cells numbers were quantified using high throughput microscopy. […]
In a second experiment, HCT116 were treated with doxorubicin, etoposide or cisplatin (to induce senescence) or DMSO (as a control). 7 days after treatment, BrdU incorporation (to assess cell division), SA-β-Galactosidase activity and p21^CIP1 expression (as markers of senescence) were analysed. […]

| Structure (SMILES) | Dependence of senolytic activity on IRE1 / UPR (IMR90 ER:RAS cells) | Survival (cell counts relative to DMSO), senescent versus control cells ([1]; first experiment: doxorubicin or DMSO, compound added 7 days after induction, read 7 days later, FIG. 5) | Survival, senescent versus control cells [1] |
| --- | --- | --- | --- |
| Cc1nn(C)c(C)c1CCOc1c(-c2ccc3c(c2)c(CN(C)C)nn3C)ccc(F)c1F [Compound 1, 1-(5-(3,4-difluoro-2-(2-(1,3,5-trimethyl-1H-pyrazol-4-yl)ethoxy)phenyl)-1-methyl-1H-indazol-3-yl)-N,N-dimethylmethanamine] | dependent on IRE1 and the unfolded protein response | preferentially kills cancer cells that undergo senescence after being treated with doxorubicin | preferentially kill cancer cells that undergo senescence after being treated with doxorubicin, etoposide or cisplatin |
| Cc1c(NS(=O)(=O)c2c(Cl)cc(-c3ccnc(N4CCNCC4)c3)cc2Cl)c(CC(C)C)nn1C [Compound 2] | dependent on IRE1 and the unfolded protein response |  | preferentially kill cancer cells that undergo senescence after being treated with doxorubicin, etoposide or cisplatin |
